Laboratory results reported in PubChem BioAssay AID330 (DTP/NCI, 2004).
Several values for one entry are separate records, joined by “and”; a condition that tells them apart may be missing. Equal values may be shown once. Toxic doses and inconclusive results are not listed. Peptide text beside a SMILES is read from it.

System: P388 leukemia ip, CD2F1 mice, survival T/C
Experiment: NCI In Vivo Anticancer Drug Screen. Data for tumor model P388 Leukemia (intraperitoneal) in CD2F1 (CDF1) mice
Settings: endpoint: median survival time, higher = longer survival
How it was run: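 Mice carrying the transplanted tumor received test compound or vehicle. Survival was recorded in each group, and the value is the treated-group measurement divided by that of the vehicle-treated control group.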

[1] = dose: 100.0 mg/kg/injection, schedule: Q04DX003 (ip), vehicle: Klucel (hydroxypropylcellulose) (HPC)
[2] = dose: 200.0 mg/kg/injection, schedule: Q04DX003 (ip), vehicle: Klucel (hydroxypropylcellulose) (HPC)
[3] = dose: 25.0 mg/kg/injection, schedule: Q01DX009 (ip), vehicle: other
[4] = dose: 50.0 mg/kg/injection, schedule: Q01DX009 (ip), vehicle: other
[5] = dose: 100.0 mg/kg/injection, schedule: Q01DX009 (ip), vehicle: other
[6] = dose: 200.0 mg/kg/injection, schedule: Q01DX009 (ip), vehicle: other
[7] = dose: 25.0 mg/kg/injection, schedule: Q01DX009 (ip), vehicle: saline with Tween-80
[8] = dose: 50.0 mg/kg/injection, schedule: Q01DX005 (ip), vehicle: Klucel (hydroxypropylcellulose) (HPC)
[9] = dose: 100.0 mg/kg/injection, schedule: Q01DX005 (ip), vehicle: Klucel (hydroxypropylcellulose) (HPC)
[10] = dose: 200.0 mg/kg/injection, schedule: Q01DX005 (ip), vehicle: Klucel (hydroxypropylcellulose) (HPC)
[11] = dose: 60.0 mg/kg/injection, schedule: Q01DX005 (ip), vehicle: saline with Tween-80
[12] = dose: 120.0 mg/kg/injection, schedule: Q01DX005 (ip), vehicle: saline with Tween-80
[13] = dose: 240.0 mg/kg/injection, schedule: Q01DX005 (ip), vehicle: saline with Tween-80
[14] = dose: 12.5 mg/kg/injection, schedule: Q01DX009 (ip), vehicle: Klucel (hydroxypropylcellulose) (HPC)
[15] = dose: 25.0 mg/kg/injection, schedule: Q01DX009 (ip), vehicle: Klucel (hydroxypropylcellulose) (HPC)
[16] = dose: 50.0 mg/kg/injection, schedule: Q01DX005 (ip), vehicle: saline with Tween-80

For `CCC1=C[C@H]2CN(CCc3c([nH]c4ccccc34)[C@@](C(=O)OC)(c3cc4c(cc3OC)N(C)[C@H]3C(C(=O)NC)=C[C@]5(CC)C=CCN6CC[C@]43[C@@H]65)C2)C1`, the T/C (dose: 1.0 mg/kg/injection, schedule: Q01DX001 (ip), vehicle: other) was 101 % of control, the T/C (dose: 2.0 mg/kg/injection, schedule: Q01DX001 (ip), vehicle: other) was 101 % of control and the T/C (dose: 4.0 mg/kg/injection, schedule: Q01DX001 (ip), vehicle: other) was 107 % of control. For the same compound, the T/C (dose: 8.0 mg/kg/injection, schedule: Q01DX001 (ip), vehicle: other) was 108 % of control, the T/C (dose: 16.0 mg/kg/injection, schedule: Q01DX001 (ip), vehicle: other) was 114 % of control and the T/C (dose: 32.0 mg/kg/injection, schedule: Q01DX001 (ip), vehicle: other) was 112 % of control and 123 % of control. The T/C (dose: 64.0 mg/kg/injection, schedule: Q01DX001 (ip), vehicle: other) was 119 % of control.
With `CC(=O)C1(c2ccccc2)CCN(c2c3ccccc3nc3ccccc23)CC1` the T/C [1] was 108 % of control and the T/C [2] was 111 % of control.
`OC1CSCc2ccccc21` (stereo not given) was tested, and the T/C [3] was 109 % of control, the T/C [4] was 102 % of control and the T/C [5] was 109 % of control. For the same compound, the T/C [6] was 108 % of control.
In the case of `O=C(/C=C/c1ccccc1O)/C=C/c1ccccc1O`, the T/C (dose: 8.0 mg/kg/injection, schedule: Q01DX009 (ip), vehicle: saline with Tween-80) was 118 % of control, the T/C (dose: 12.0 mg/kg/injection, schedule: Q01DX009 (ip), vehicle: saline with Tween-80) was 118 % of control and the T/C (dose: 18.0 mg/kg/injection, schedule: Q01DX009 (ip), vehicle: saline with Tween-80) was 113 % of control. For the same compound, the T/C [7] was 115 % of control.
With `Nc1nc(C2CCCC2)c(Br)c(=O)[nH]1` the T/C [8] was 101 % of control, the T/C [9] was 103 % of control and the T/C [10] was 105 % of control.
With `CN1CCOc2c1cnn(CCO)c2=O` the T/C [11] was 108 % of control, the T/C [12] was 108 % of control and the T/C [13] was 102 % of control.
In the case of `COc1c2ccoc2cc2oc(COC3OC(CO)C(O)C(O)C3O)cc(=O)c12` (stereo not given), the T/C (dose: 12.5 mg/kg/injection, schedule: Q01DX005 (ip), vehicle: saline) was 100 % of control, the T/C (dose: 25.0 mg/kg/injection, schedule: Q01DX005 (ip), vehicle: saline) was 108 % of control and the T/C (dose: 50.0 mg/kg/injection, schedule: Q01DX005 (ip), vehicle: saline) was 106 % of control and 108 % of control.
In the case of `C=C1CCCC2(C)C(OC(C)=O)C=C3C(C)(CCC3(O)C(C)C)CC12O` (stereo not given), the T/C (dose: 0.5 mg/kg/injection, schedule: Q01DX009 (ip), vehicle: saline + alcohol) was 110 % of control, the T/C (dose: 1.0 mg/kg/injection, schedule: Q01DX009 (ip), vehicle: saline + alcohol) was 108 % of control and the T/C (dose: 2.0 mg/kg/injection, schedule: Q01DX009 (ip), vehicle: saline + alcohol) was 102 % of control.
In the case of `O=C1CC2CCC(C1)N2C(=O)Oc1ccccc1`, the T/C (dose: 100.0 mg/kg/injection, schedule: Q01DX001 (ip), vehicle: Klucel (hydroxypropylcellulose) (HPC)) was 101 % of control, the T/C (dose: 200.0 mg/kg/injection, schedule: Q01DX001 (ip), vehicle: Klucel (hydroxypropylcellulose) (HPC)) was 93 % of control and the T/C (dose: 400.0 mg/kg/injection, schedule: Q01DX001 (ip), vehicle: Klucel (hydroxypropylcellulose) (HPC)) was 92 % of control.
In the case of `COc1ccc2nc3cc(Cl)ccc3c(SCC(=O)OCC(=O)[C@@]3(O)CC[C@H]4[C@@H]5CCC6=CC(=O)C=C[C@]6(C)[C@H]5C(=O)C[C@@]43C)c2c1`, the T/C (dose: 50.0 mg/kg/injection, schedule: Q01DX009 (ip), vehicle: saline) was 118 % of control, the T/C (dose: 100.0 mg/kg/injection, schedule: Q01DX009 (ip), vehicle: saline) was 108 % of control and the T/C (dose: 200.0 mg/kg/injection, schedule: Q01DX009 (ip), vehicle: saline) was 110 % of control.
In the case of `CN1C(Cc2ccccc2)N(S(=O)(=O)C2C=CC=CC=C2)CC1(C)C` (stereo not given), the T/C (dose: 100.0 mg/kg/injection, schedule: Q04DX003 (ip), vehicle: saline) was 101 % of control, the T/C (dose: 200.0 mg/kg/injection, schedule: Q04DX003 (ip), vehicle: saline) was 99 % of control and the T/C (dose: 400.0 mg/kg/injection, schedule: Q04DX003 (ip), vehicle: saline) was 93 % of control.
`CC(=O)OC(C[N+](=O)[O-])C(Cl)(Cl)Cl` (stereo not given) was tested, and the T/C (dose: 6.25 mg/kg/injection, schedule: Q01DX009 (ip), vehicle: saline with Tween-80) was 104 % of control, the T/C (dose: 12.5 mg/kg/injection, schedule: Q01DX009 (ip), vehicle: saline with Tween-80) was 109 % of control and the T/C [7] was 100 % of control.
With `NC(=O)N/N=C1/CCC(O)CC1CC(=O)O` (stereo not given) the T/C [8] was 103 % of control, the T/C [9] was 100 % of control and the T/C [10] was 97 % of control.
In the case of `C1CCC2=NCCCN2CC1`, the T/C (dose: 6.25 mg/kg/injection, schedule: Q01DX009 (ip), vehicle: Klucel (hydroxypropylcellulose) (HPC)) was 107 % of control, the T/C [14] was 103 % of control and the T/C [15] was 105 % of control.
`O=C(NCCCl)Oc1c(Cl)cc(Cl)cc1Cl` was tested, and the T/C (dose: 12.5 mg/kg/injection, schedule: Q01DX005 (ip), vehicle: Klucel (hydroxypropylcellulose) (HPC)) was 106 % of control and the T/C (dose: 25.0 mg/kg/injection, schedule: Q01DX005 (ip), vehicle: Klucel (hydroxypropylcellulose) (HPC)) was 104 % of control.
In the case of `CC[C@H]1C[C@H]2CN(CCc3c([nH]c4ccccc34)[C@@](C(=O)OC)(c3cc4c(cc3OC)N(C=O)[C@H]3[C@@](O)(C(=O)OC)[C@H](OC(C)=O)[C@]5(CC)CCCN6CC[C@]43[C@@H]65)C2)C1`, the T/C (dose: 0.5 mg/kg/injection, schedule: Q01DX001 (ip), vehicle: water) was 109 % of control, the T/C (dose: 1.0 mg/kg/injection, schedule: Q01DX001 (ip), vehicle: water) was 107 % of control and the T/C (dose: 8.0 mg/kg/injection, schedule: Q01DX001 (ip), vehicle: water) was 119 % of control.
`CCOC(=O)c1c(C)n(C)c2c1nnc1ccccc12` was tested, and the T/C [11] was 98 % of control, the T/C [12] was 90 % of control and the T/C [13] was 86 % of control.
With `CC(C)(C)c1cc(O)cc(C(=O)O)c1O` the T/C (dose: 50.0 mg/kg/injection, schedule: Q01DX009 (ip), vehicle: saline with Tween-80) was 101 % of control and the T/C (dose: 100.0 mg/kg/injection, schedule: Q01DX009 (ip), vehicle: saline with Tween-80) was 100 % of control.
With `CC(Nc1nncs1)Nc1nncs1` the T/C (dose: 30.0 mg/kg/injection, schedule: Q01DX005 (ip), vehicle: saline with Tween-80) was 105 % of control, the T/C [12] was 159 % of control and 162 % of control and the T/C [13] was 160 % of control and 170 % of control.
`COc1cc(C2c3cc4c(cc3OC3(O)CCCC23)OCO4)cc(OC)c1OC` (stereo not given) was tested, and the T/C [11] was 91 % of control, the T/C [12] was 93 % of control and the T/C [13] was 99 % of control.
`CC(C)C(NC(=O)C(N)CCCN=C(N)N)C(=O)O` (stereo not drawn) (H-Arg-Val-OH; configuration not given here) was tested, and the T/C [16] was 91 % of control, the T/C (dose: 100.0 mg/kg/injection, schedule: Q01DX005 (ip), vehicle: saline with Tween-80) was 100 % of control and the T/C (dose: 200.0 mg/kg/injection, schedule: Q01DX005 (ip), vehicle: saline with Tween-80) was 100 % of control.
For `CCC(C)Sc1nc2ccc(NC(=O)/C=C/C(=O)O)cc2s1` (stereo not given), the T/C [1] was 95 % of control and the T/C [2] was 100 % of control.
For `COC(=O)C(CS)NC(=O)C(Cc1c[nH]c2ccccc12)NC(=O)OC(C)(C)C` (stereo not given), the T/C (dose: 12.5 mg/kg/injection, schedule: Q01DX009 (ip), vehicle: other) was 88 % of control, the T/C [3] was 103 % of control and the T/C [4] was 100 % of control. For the same compound, the T/C [5] was 99 % of control and the T/C [6] was 103 % of control.
In the case of `[N-]=[N+]=C1N=CN=C1c1ncn[nH]1`, the T/C (dose: 3.12 mg/kg/injection, schedule: Q01DX009 (ip), vehicle: Klucel (hydroxypropylcellulose) (HPC)) was 113 % of control, the T/C [14] was 150 % of control and the T/C [15] was 155 % of control. For the same compound, the T/C (dose: 50.0 mg/kg/injection, schedule: Q01DX009 (ip), vehicle: Klucel (hydroxypropylcellulose) (HPC)) was 160 % of control.
`O=C1C2CC(Cl)C(SSC3CC4C(=O)N(SC(Cl)(Cl)C(Cl)Cl)C(=O)C4CC3Cl)CC2C(=O)N1SC(Cl)(Cl)C(Cl)Cl` (stereo not given) was tested, and the T/C (dose: 6.25 mg/kg/injection, schedule: Q01DX005 (ip), vehicle: saline with Tween-80) was 108 % of control and 110 % of control, the T/C (dose: 12.5 mg/kg/injection, schedule: Q01DX005 (ip), vehicle: saline with Tween-80) was 101 % of control and 107 % of control and the T/C [16] was 115 % of control.
In the case of `COc1ccc(CC2(OC(C)=O)N=NC(C)(C)O2)cc1` (stereo not given), the T/C [8] was 103 % of control, the T/C [9] was 98 % of control and the T/C [10] was 98 % of control.
For `Nc1ccc2ccc(N)nc2c1`, the T/C (dose: 50.0 mg/kg/injection, schedule: Q01DX009 (ip), vehicle: acid diluted with saline) was 105 % of control.
With `O=C(O)C(=O)O.O=C(O)C(=O)O.O=C(O)C(=O)O.[Rh]` the T/C (dose: 200.0 mg/kg/injection, schedule: Q04DX003 (ip), vehicle: water) was 95 % of control.
